The results in this text go back to ChEMBL document CHEMBL1201862, “PubChem BioAssay data set” (2004).

Some test systems named below: SK-MEL-5; SK-MEL-2; HL-60; RXF 393; TK-10; UACC-257; MOLT-4; CCRF-CEM; OVCAR-5; K562; 786-0; Malme-3M; RPMI-8226; OVCAR-4; CAKI-1; UACC-62; NCI-H226; SR.
Assay in all cases: DTP human tumour cell line panel, 48 h

The term GI50 denotes the concentration at which growth is held to half of that of the control.

Molecules are shown by their SMILES.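 48-hour exposure; five concentrations; linearly interpolated endpoints. At the GI50, growth is halved.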 Calls of active or inactive are those of the source. Cut-off read from the data, not from the text of the source: active = GI50 up to about 1.1 µM and inactive = higher.

In the case of `O=C1/C(=C/c2cccc([N+](=O)[O-])c2)COc2ccc(Br)cc21`, the GI50 was > 100 µM (inactive) with SK-MEL-5; > 100 µM (inactive) in the experiment on SK-MEL-2; 17.7 µM (inactive) with HL-60; > 100 µM (inactive) with RXF 393; > 100 µM (inactive) in the experiment on TK-10; > 100 µM (inactive) with UACC-257. Further, the GI50 in the experiment with MOLT-4 was 26.9 µM (inactive); in the experiment on CCRF-CEM, 13.6 µM (inactive); in the experiment with OVCAR-5, > 100 µM (inactive); with K562, 22.9 µM (inactive); in the experiment with 786-0, 90.2 µM (inactive); in the experiment with Malme-3M, > 100 µM (inactive). The GI50 in the experiment with RPMI-8226 was 2.24 µM (inactive).
Turning to `O=C1[C@H]2ON(c3ccccc3)C(c3ccc([N+](=O)[O-])cc3)[C@H]2C(=O)N1c1ccc(Cc2ccc(N3C(=O)[C@@H]4ON(c5ccccc5)C(c5ccc([N+](=O)[O-])cc5)[C@@H]4C3=O)cc2)cc1` (stereo partly drawn), the GI50 in the experiment on SK-MEL-5 is 40.1 µM (inactive); in the experiment with OVCAR-4, > 100 µM (inactive); in the experiment on CAKI-1 it was 26.1 µM (inactive); with SK-MEL-2, > 100 µM (inactive); in the experiment on HL-60, > 100 µM (inactive); in the experiment on RXF 393, > 100 µM (inactive). Further, the GI50 in the experiment on TK-10 is > 100 µM (inactive); in the experiment with UACC-62, 67.3 µM (inactive); with UACC-257, 98.9 µM (inactive); in the experiment on MOLT-4 it was > 100 µM (inactive); in the experiment with CCRF-CEM it was > 100 µM (inactive); in the experiment with NCI-H226, > 100 µM (inactive). Further, the GI50 in the experiment on OVCAR-5 was > 100 µM (inactive); in the experiment on K562, > 100 µM (inactive); with 786-0, > 100 µM (inactive); in the experiment with Malme-3M, 58.6 µM (inactive); in the experiment with RPMI-8226 it was > 100 µM (inactive).
On to `Cc1ccccc1/N=N/C(C(=O)c1ccccc1)C(=O)c1ccccc1`, for which the GI50 with SK-MEL-5 is 16.6 µM (inactive); with OVCAR-4 it was 18.7 µM (inactive); in the experiment with CAKI-1 it was 34.1 µM (inactive); in the experiment on SK-MEL-2 it was 19.7 µM (inactive); in the experiment on HL-60 it was 11.9 µM (inactive); in the experiment on TK-10, 44.8 µM (inactive). Further, the GI50 with UACC-62 was 20.9 µM (inactive); with UACC-257, 26.7 µM (inactive); with MOLT-4, 13.4 µM (inactive); in the experiment with CCRF-CEM it was 9.46 µM (inactive); with NCI-H226, 11.7 µM (inactive); in the experiment with OVCAR-5, 31.1 µM (inactive). Further, the GI50 in the experiment on K562 was 22.6 µM (inactive); with 786-0 it was 25.4 µM (inactive); in the experiment with Malme-3M, 31.7 µM (inactive); in the experiment on RPMI-8226, 16.1 µM (inactive).
As for `CCOC(=O)c1ccn2c(c1)c(C#N)c1nc3ccccc3nc12`, the GI50 in the experiment on SK-MEL-5 is 35.6 µM (inactive); in the experiment on OVCAR-4, 91 µM (inactive); in the experiment on CAKI-1, 54.5 µM (inactive); in the experiment on SK-MEL-2 it was > 100 µM (inactive); in the experiment on HL-60 it was 38.8 µM (inactive); in the experiment on TK-10, 75.9 µM (inactive). For the same molecule, the 50% growth inhibitory concentration (GI50) with UACC-62 was 0.908 µM (active); in the experiment on UACC-257 it was > 100 µM (inactive); in the experiment on MOLT-4 it was 18.1 µM (inactive); in the experiment with CCRF-CEM, 18.5 µM (inactive); in the experiment on SR it was 32.6 µM (inactive); with OVCAR-5, > 100 µM (inactive). Also, the GI50 with K562 was 33.9 µM (inactive); in the experiment with 786-0 it was > 100 µM (inactive); in the experiment with Malme-3M, 76 µM (inactive); in the experiment on RPMI-8226, 43.6 µM (inactive).
In the case of `COCC1N=C(c2cc(OC)c(OC)c(OC)c2-c2cc3c(cc2[C@H](C)O)OCO3)O[C@H]1c1ccccc1` (stereo partly drawn), the GI50 in the experiment with SK-MEL-5 was 42.4 µM (inactive); with OVCAR-4 it was 33.5 µM (inactive); with SK-MEL-2 it was 36.7 µM (inactive); with HL-60, > 10 µM (inactive); in the experiment with TK-10, > 100 µM (inactive); in the experiment on UACC-62, > 100 µM (inactive). Further, the GI50 in the experiment with MOLT-4 is 41.6 µM (inactive); in the experiment with CCRF-CEM it was > 10 µM (inactive); in the experiment with NCI-H226, > 100 µM (inactive); in the experiment with K562, > 10 µM (inactive); in the experiment on 786-0, > 100 µM (inactive); in the experiment on RPMI-8226, 31 µM (inactive).
In the case of `COc1ccccc1NC(=O)C1=C(C)NC(C)=C(C(=O)Nc2ccccc2OC)C1c1ccc(N(C)C)cc1`, the GI50 in the experiment on SK-MEL-5 was 30.8 µM (inactive); in the experiment with OVCAR-4, 29.6 µM (inactive); in the experiment on CAKI-1 it was 23.2 µM (inactive); in the experiment with SK-MEL-2, 19.7 µM (inactive); in the experiment on HL-60 it was 15.8 µM (inactive); in the experiment on RXF 393 it was 21.7 µM (inactive). Further, the GI50 with TK-10 was 34.8 µM (inactive); in the experiment with UACC-257 it was 27.9 µM (inactive); in the experiment on MOLT-4 it was 18.8 µM (inactive); in the experiment on CCRF-CEM it was 19.3 µM (inactive); with NCI-H226 it was 19.6 µM (inactive); in the experiment with OVCAR-5 it was 39.2 µM (inactive). Moreover, the GI50 with K562 was 18.9 µM (inactive); with 786-0 it was 33.8 µM (inactive); in the experiment with Malme-3M, 36.1 µM (inactive); in the experiment on RPMI-8226, 16.6 µM (inactive).
Regarding `CC(=O)NNc1nc(C)c(C(=O)NNC(=O)C(=O)Nc2c(C)cccc2C(C)C)s1`, the GI50 in the experiment on SK-MEL-5 was 95.1 µM (inactive); in the experiment with OVCAR-4, 32.8 µM (inactive); with SK-MEL-2, > 100 µM (inactive); in the experiment on HL-60, 46.7 µM (inactive); in the experiment with TK-10, > 100 µM (inactive); in the experiment with UACC-62, 59.7 µM (inactive). The GI50 in the experiment on UACC-257 is 64.3 µM (inactive); in the experiment on MOLT-4, 44.4 µM (inactive); in the experiment with CCRF-CEM, 34.5 µM (inactive); in the experiment on SR, 40 µM (inactive); in the experiment with NCI-H226, 79.4 µM (inactive); in the experiment with OVCAR-5 it was > 100 µM (inactive). The GI50 is 46.7 µM (inactive) with K562, > 100 µM (inactive) with 786-0, 59.3 µM (inactive) in the experiment with Malme-3M and 57.5 µM (inactive) with RPMI-8226.
With `O=C(Cc1cc[n+]([O-])cc1)C(=O)Nc1cc(Cl)c(Cl)cc1Cl`, the GI50 with SK-MEL-5, in the experiment with OVCAR-4, in the experiment with SK-MEL-2, in the experiment on HL-60, with RXF 393 and with TK-10 was > 100 µM (inactive) throughout. Also, the GI50 in the experiment with UACC-62, in the experiment with UACC-257, with MOLT-4, in the experiment on CCRF-CEM, in the experiment with OVCAR-5 and with K562 was > 100 µM (inactive) in each case. Besides, the GI50 in the experiment on 786-0, in the experiment with Malme-3M and in the experiment on RPMI-8226 was > 100 µM (inactive) throughout.
Regarding `NC(=O)N/N=C/C(/C=N/NC(N)=O)[N+](=O)[O-]`, the GI50 in the experiment with OVCAR-4, with CAKI-1, in the experiment on SK-MEL-2, with HL-60, with RXF 393 and in the experiment on TK-10 was > 100 µM (inactive) in each case. In addition, the GI50 with UACC-62, in the experiment on UACC-257, in the experiment with CCRF-CEM, in the experiment on NCI-H226, in the experiment with OVCAR-5 and in the experiment with K562 was > 100 µM (inactive) throughout. Further, the GI50 in the experiment on 786-0, in the experiment on Malme-3M and with RPMI-8226 was > 100 µM (inactive) throughout.
For `Cc1ccc(C(=O)C(C)N)cc1C` (stereo not drawn), the GI50 with SK-MEL-5, in the experiment on OVCAR-4, with CAKI-1, in the experiment with SK-MEL-2, with RXF 393 and in the experiment with TK-10 was > 100 µM (inactive) each time. Further, the GI50 with UACC-62, in the experiment on UACC-257, with MOLT-4, in the experiment with CCRF-CEM, with NCI-H226 and in the experiment with K562 was > 100 µM (inactive) throughout. In addition, the GI50 in the experiment on 786-0, in the experiment on Malme-3M and in the experiment with RPMI-8226 was > 100 µM (inactive) throughout.
Turning to `O=C(Nc1cccs1)c1c(O)[nH]c(=S)[nH]c1=O`, the GI50 with SK-MEL-5, in the experiment with OVCAR-4, with CAKI-1, with SK-MEL-2, with TK-10 and with UACC-62 was > 100 µM (inactive) in each case. In addition, the GI50 with UACC-257, with MOLT-4, with CCRF-CEM, in the experiment on SR, in the experiment with NCI-H226 and in the experiment with OVCAR-5 was > 100 µM (inactive) each time. The GI50 with K562, in the experiment on 786-0 and with RPMI-8226 was > 100 µM (inactive) in each case.
Regarding `CC(=O)OC1CC2C(C)(C)C(=O)C=C[C@]2(C)C2CCC3(C)C(=CC(=O)C3c3ccoc3)[C@]12C` (stereo partly drawn), the GI50 with SK-MEL-5 is 13.1 µM (inactive); in the experiment on OVCAR-4 it was 18.4 µM (inactive); with CAKI-1 it was 24.7 µM (inactive); in the experiment with SK-MEL-2, 17.9 µM (inactive); in the experiment with HL-60, 14.3 µM (inactive); in the experiment on RXF 393, 2.3 µM (inactive). Moreover, the GI50 in the experiment on TK-10 is 15.7 µM (inactive); with UACC-62, 13 µM (inactive); in the experiment on UACC-257 it was 17.4 µM (inactive); in the experiment on MOLT-4, 13.2 µM (inactive); in the experiment with CCRF-CEM, 8.47 µM (inactive); with NCI-H226 it was 17.8 µM (inactive). The GI50 is 22.4 µM (inactive) in the experiment on OVCAR-5; 9.55 µM (inactive) with K562; 15.5 µM (inactive) in the experiment on 786-0; 17.5 µM (inactive) with Malme-3M; 14.9 µM (inactive) with RPMI-8226.
